# Experimental data as given in patent US20250223268A1, “4-Methylsulfonylbenzamide Compound, Preparation Method, Herbicidal Composition And Use” (Jiangsu Flag Chemical Industry Co., Ltd., priority 2022, published 2025).
# Tests used:
# Type in all cases: in vivo
# Echinochloa crusgalli [1] = assay: Greenhouse herbicidal activity assay, post-emergence; settings: Post-emergence test, rate 150 g a.i./hm^2, grade by fresh weight inhibition rate
# Method in brief: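 Weeds were sown in nutrient soil in 7 cm pots and grown in a growth chamber to the 3-6 leaf stage, then foliar-sprayed, air-dried and returned to the chamber. Fresh weight inhibition was scored 14-21 days later in bands from A (≥80% to 100%) to E (<20%).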
# Echinochloa crusgalli [2] = assay: Greenhouse herbicidal activity and crop safety comparison (Test Example 2); settings: for inhibition at 75 g/ha: Rate 75 g/ha; for inhibition at 150 g/ha / Echinochloa crusgalli, control efficacy grading (fresh weight inhibition rate): Rate 150 g/ha
# Excerpt: (§1) Pre-emergence: Seeds of gramineous weeds (Echinochloa crusgalli, Echinochloa crusgalli var. zelayensis, Echinochloa phyllopogon, Eleusine indica, Digitaria sanguinalis, Leptochloa chinensis, Setaria viridis, Alopecurus japonicus Steud, Beckmannia syzigachne, Polypogon fugax, Alopecurus aequalis, Lolium multiflorum, Poa annua, Aegilops tataschii, Avena fatua, Alopecurus myosuroides, Bromus japonicus), broadleaf weeds (Eclipta prostrata, Amaranthus retroflexus, Rorippa indica, Myosoton aquaticum, Veronica didyma, Galium aparine, Solanum nigrum, Xanthium sibiricum, Conyza canadensis, Sesbania cannabina, Sagittaria trifolia), and Cyperus iria (Cyperus iria, Scirpus juncoides, Cyperus difformis, etc.) were sown in plastic pots (7 cm diameter) with nutrient soil and bottom holes. Crop seeds (including Oryza sativa subsp. indica, Oryza sativa subsp. japonica, Oryza sativa L. var. Glutinosa matsum, Triticum aestivum, Zea mays, Sorghum bicolor, Setaria italica, Glycine max, Gossypium hirsutum, Brassica napus, Arachis hypogaea) were sown in plastic pots (10 cm diameter) with nutrient soil and bottom holes. After sowing, the seeds were lightly covered with soil, and the soil was moistened via bottom water absorption. The pots were placed in a constant-temperature light-controlled growth chamber for 24 hours before soil spraying. Spraying was performed using a 3WP-2000 walking-type spray tower (produced by the Nanjing Agricultural Mechanization Institute, Ministry of Agriculture) with a spindle speed of 96 mm/r, spray height of 300 mm, effective spray width of 350 mm, spray area of 0.35 m^2, and nozzle flow rate of 390 mL/min.
# (§2) After treatment, the test materials were air-dried naturally in the laboratory and then transferred to the growth chamber. Results were assessed 14-30 days later.
# (§3) Post-emergence: Seeds of gramineous weeds (Echinochloa crusgalli, Echinochloa crusgalli var. zelayensis, Echinochloa phyllopogon, Eleusine indica, Digitaria sanguinalis, Leptochloa chinensis, Setaria viridis, Alopecurus japonicus Steud, Beckmannia syzigachne, Polypogon fugax, Alopecurus aequalis, Lolium multiflorum, Poa annua, Aegilops tataschii, Avena fatua, Alopecurus myosuroides, Bromus japonicus), broadleaf weeds (Eclipta prostrata, Amaranthus retroflexus, Rorippa indica, Myosoton aquaticum, Veronica didyma, Galium aparine, Solanum nigrum, Xanthium sibiricum, Conyza canadensis, Sesbania cannabina, Sagittaria trifolia), and Cyperus iria (Cyperus iria, Scirpus juncoides, Cyperus difformis, etc.) were sown in plastic pots (7 cm diameter) with nutrient soil and bottom holes. Crop seeds (including Oryza sativa subsp. indica, Oryza sativa subsp. japonica, Oryza sativa L. var. Glutinosa matsum, Triticum aestivum, Zea mays, Sorghum bicolor, Setaria italica, Glycine max, Gossypium hirsutum, Brassica napus, Arachis hypogaea) were sown in plastic pots (10 cm diameter) with nutrient soil and bottom holes. After sowing, the pots were placed in the growth chamber until the plants reached the 3-6 leaf stage for foliar spraying. Post-treatment, the materials were air-dried naturally and returned to the growth chamber. Results were assessed 14-21 days later.
# (§4) • A: Fresh weight inhibition rate≥80% to 100%; • B: Fresh weight inhibition rate[…] to <80%; • C: Fresh weight inhibition rate≥40% to <60%; • D: Fresh weight inhibition rate≥20% to <40%; • E: Fresh weight inhibition rate<20%; • NT: Not tested.
# (§5) Using the above method, the herbicidal activity and crop safety of the present compounds were compared with structurally similar known compounds (CK1, CK2, CK3, CK4: compounds 4-756, 4-759, 1-557, 1-563 from WO2012028579A1; CK5: compound 290-1 from WO2013087577A1; CK6: compound 1-129 from WO2011035874A1).
# [3] = system: Oryza sativa subsp. japonica; assay: as above
# Excerpt: as §1, §2, §3, §4, §5
# [4] = system: Oryza sativa subsp. indica; assay: as above
# Excerpt: as §1, §2, §3, §4, §5
# [5] = Echinochloa crus-galli, read-out: Echinochloa crusgalli, control efficacy grading (fresh weight inhibition rate)
Compound,"pest or weed control at 150 g/ha (Echinochloa crusgalli [1]; Echinochloa crus-galli, read-out: Control efficacy grade, Echinochloa crusgalli) [%]",inhibition at 75 g/ha (Echinochloa crusgalli [2]; [5]) [%],inhibition at 150 g/ha (Echinochloa crusgalli [2]; [5]) [%],"Oryza sativa subsp. japonica, grading of fresh weight inhibition rate (crop safety) ([3]; Rate 75 g/ha)","Oryza sativa subsp. japonica, grading of fresh weight inhibition rate (crop safety) ([3]; Rate 150 g/ha)","Oryza sativa subsp. indica, grading of fresh weight inhibition rate (crop safety) ([4]; Rate 75 g/ha)","Oryza sativa subsp. indica, grading of fresh weight inhibition rate (crop safety) ([4]; Rate 150 g/ha)","Control efficacy grade, Echinochloa crusgalli (Echinochloa crusgalli [1])","Echinochloa crusgalli, control efficacy grading (fresh weight inhibition rate) (Echinochloa crusgalli [2])","Oryza sativa subsp. japonica, grading of fresh weight inhibition rate (crop safety) ([3]; Rate 18.75 g/ha)","Oryza sativa subsp. indica, grading of fresh weight inhibition rate (crop safety) ([4]; Rate 18.75 g/ha)","inhibition at 18.75 g/ha (Echinochloa crusgalli [2]; Echinochloa crus-galli, Rate 18.75 g/ha, read-out: Echinochloa crusgalli, control efficacy grading (fresh weight inhibition rate)) [%]"
"CCC[S+]([O-])c1c(S(C)(=O)=O)ccc(C(=O)N(C)c2nnc(C)o2)c1Cl (racemic) [Compound 3-787, 2-chloro-N-methyl-N-(5-methyl-1,3,4-oxadiazol-2-yl)-4-(methylsulfonyl)-3-(propylsulfinyl)benzamide]",80 to 100,80 to 100,80 to 100,E (Fresh weight inhibition rate<20%),E (Fresh weight inhibition rate<20%),E (Fresh weight inhibition rate<20%),E (Fresh weight inhibition rate<20%),,,,,
CCC[S+]([O-])c1c(S(C)(=O)=O)ccc(C(=O)N(C)c2nnco2)c1Cl (racemic) [Compound 3-795],,,,,E (Fresh weight inhibition rate<20%),,E (Fresh weight inhibition rate<20%),A (Fresh weight inhibition rate≥80% to 100%),A (Fresh weight inhibition rate≥80% to 100%),,,
CCC[S+]([O-])c1c(S(C)(=O)=O)ccc(C(=O)N(C)c2nnc(CC)o2)c1Cl (racemic) [Compound 3-798],,,,,E (Fresh weight inhibition rate<20%),,E (Fresh weight inhibition rate<20%),A (Fresh weight inhibition rate≥80% to 100%),A (Fresh weight inhibition rate≥80% to 100%),,,
CCC[S+]([O-])c1c(S(C)(=O)=O)ccc(C(=O)N(C)c2nnc(C(C)C)o2)c1Cl (racemic) [Compound 3-801],,,,,E (Fresh weight inhibition rate<20%),,E (Fresh weight inhibition rate<20%),,A (Fresh weight inhibition rate≥80% to 100%),,,
CC(C)[S+]([O-])c1c(S(C)(=O)=O)ccc(C(=O)N(C)c2nnco2)c1Cl (racemic) [Compound 3-804],,,,,E (Fresh weight inhibition rate<20%),,E (Fresh weight inhibition rate<20%),A (Fresh weight inhibition rate≥80% to 100%),,,,
Cc1nnc(N(C)C(=O)c2ccc(S(C)(=O)=O)c([S+]([O-])C(C)C)c2Cl)o1 (racemic) [Compound 3-807],,,,E (Fresh weight inhibition rate<20%),E (Fresh weight inhibition rate<20%),E (Fresh weight inhibition rate<20%),E (Fresh weight inhibition rate<20%),A (Fresh weight inhibition rate≥80% to 100%),,,,
CCc1nnc(N(C)C(=O)c2ccc(S(C)(=O)=O)c([S+]([O-])C(C)C)c2Cl)o1 (racemic) [Compound 3-810],,,,,E (Fresh weight inhibition rate<20%),,E (Fresh weight inhibition rate<20%),B (Fresh weight inhibition rate≥260% to <80%),,,,
"Cn1nnnc1NC(=O)c1ccc(S(C)(=O)=O)c(S(C)(=O)=O)c1Cl [CK1, reference compound]",,80 to 100,80 to 100,C (Fresh weight inhibition rate≥40% to <60%),B (Fresh weight inhibition rate≥260% to <80%),C (Fresh weight inhibition rate≥40% to <60%),B (Fresh weight inhibition rate≥260% to <80%),,,C (Fresh weight inhibition rate≥40% to <60%),C (Fresh weight inhibition rate≥40% to <60%),
"CCS(=O)(=O)c1c(S(C)(=O)=O)ccc(C(=O)Nc2nnnn2C)c1Cl [CK2, reference compound]",,80 to 100,80 to 100,C (Fresh weight inhibition rate≥40% to <60%),B (Fresh weight inhibition rate≥260% to <80%),C (Fresh weight inhibition rate≥40% to <60%),B (Fresh weight inhibition rate≥260% to <80%),,,C (Fresh weight inhibition rate≥40% to <60%),C (Fresh weight inhibition rate≥40% to <60%),
"Cc1nnc(N(C)C(=O)c2ccc(S(C)(=O)=O)c([S+](C)[O-])c2Cl)o1 (stereo not drawn) [CK5, reference compound]",,< 20,20 to 40,E (Fresh weight inhibition rate<20%),E (Fresh weight inhibition rate<20%),E (Fresh weight inhibition rate<20%),D (Fresh weight inhibition rate≥20% to <40%),,,E (Fresh weight inhibition rate<20%),E (Fresh weight inhibition rate<20%),< 20
CCCS(=O)(=O)c1c(S(C)(=O)=O)ccc(C(=O)Nc2nnnn2CC)c1Cl [Compound 1-91],,,,,E (Fresh weight inhibition rate<20%),,E (Fresh weight inhibition rate<20%),,A (Fresh weight inhibition rate≥80% to 100%),,,
"CCn1nnnc1NC(=O)c1ccc(S(C)(=O)=O)c(S(=O)(=O)C(C)C)c1Cl [Compound 1-96, 2-chloro-N-(1-ethyl-1H-tetrazol-5-yl)-3-(isopropylsulfonyl)-4-(methylsulfonyl)benzamide]",,,80 to 100,,E (Fresh weight inhibition rate<20%),,E (Fresh weight inhibition rate<20%),,,,,
